# In patent publication US9073853B2, “Cycloalkane carboxylic acid derivatives as CXCR3 receptor antagonists” (Sanofi, priority 2011, dated 2015):
# pIC50: −log10 of the molar value.
# Target: human CXCR3-A receptor (Homo sapiens (Human), UniProt P49682)
# Test: 125I-CXCL10 competition radioligand binding assay
# Details: displacement of 125I-CXCL10 from membranes of CHO cells expressing human recombinant CXCR3-A
# Procedure: IC50 values were determined for the test compounds and used to explore the structure-activity relationships (SAR). […] This cell line was registered in Sanofi-Aventis cell line bank. […] Cell suspension was diluted with PBS and cells were collected with centrifugation at 230 g for 10 minutes at 10° C. with a Juan centrifuge. […] The supernatant was carefully collected and centrifuged at 100,000×g for 60 min at 4° with a Beckman Avanti J30 centrifuge. […] Protein concentration was determined with Bio-Rad protein assay (Cat No 500-0006). Membrane aliquots were stored at -80° C. […] The composition of the binding assay buffer was determined in a course of detailed optimization procedure. […] Binding reaction was initiated by adding of membranes (10-20 μg proteins, approximately 5×10^5 cell equivalents) to the reaction mixture. After 60 minutes of incubation at 25° C. the reaction was terminated by rapid filtration over GF/B glass fiber filters that were pre-soaked with 0.5% polyethyleneimine (Fluka Analytical, P3143) for 1 hour, using a Skatron cell harvester device. Filters then were washed with 8 ml of ice-cold wash buffer (modified binding buffer in which BSA was omitted and the concentration of NaCl was adjusted to 500 mM concentration). The radioactivity retained on the filters was measured by a Wizard 1470 Automatic Gamma counter. Test compounds were dissolved prior to the binding assay at a concentration of 10 mM in DMSO. Stock solutions were stored at -20° C. for not longer than 3 months. […] Before adding these solutions of test compound to the binding reaction mixture, an intermediate dilution procedure was applied, in which 30 μL of each solution sample was transferred into a dilution tube containing 970 μL of binding assay buffer. […] The IC50 values and Hill slopes for competition binding data were obtained using nonlinear four-parametric curve fitting method.
# Sequence of human CXCR3-A receptor (P49682 whole entry): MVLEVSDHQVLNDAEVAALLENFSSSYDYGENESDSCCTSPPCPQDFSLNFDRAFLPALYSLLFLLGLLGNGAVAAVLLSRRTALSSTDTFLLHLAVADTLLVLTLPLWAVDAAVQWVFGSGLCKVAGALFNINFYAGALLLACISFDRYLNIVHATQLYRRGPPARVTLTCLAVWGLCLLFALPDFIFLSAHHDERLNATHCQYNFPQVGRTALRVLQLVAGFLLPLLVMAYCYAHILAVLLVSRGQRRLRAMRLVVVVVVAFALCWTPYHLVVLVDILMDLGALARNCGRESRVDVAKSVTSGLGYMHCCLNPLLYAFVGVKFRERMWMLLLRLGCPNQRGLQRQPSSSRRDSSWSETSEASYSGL
row,SMILES,pIC50
1,"COc1cc(CN(C[C@H]2CC[C@H](C(=O)O)CC2)C2CCc3cc(Cl)ccc32)ccc1OCCN1C(=O)CN(C)C1=O (stereo partly drawn) [Example 52, trans-4-[((5-Chloro-indan-1-yl)-{3-methoxy-4-[2-(3-methyl-2,5-dioxo-imidazolidin-1-yl)-ethoxy]-benzyl}-amino)-methyl]-cyclohexanecarboxylic acid]",6.75
2,"COc1cc(CN(C[C@H]2CC[C@H](C(=O)O)CC2)[C@@H](C)c2ccc(Cl)cc2)ccc1OCCN1C(=O)CN(C)C1=O [Example 53, trans-4-[([(S)-1-(4-Chloro-phenyl)-ethyl]-{3-methoxy-4-[2-(3-methyl-2,5-dioxo-imidazolidin-1-yl)-ethoxy]-benzyl}-amino)-methyl]-cyclohexanecarboxylic acid]",6.10
3,"Cc1cc(CN(C[C@H]2CC[C@H](C(=O)O)CC2)[C@@H](C)c2ccc(Cl)cc2)ccc1CCCN1C(=O)CCC1=O [Example 54, trans-4-[([(S)-1-(4-Chloro-phenyl)-ethyl]-{4-[3-(2,5-dioxo-pyrrolidin-1-yl)-propyl]-3-methyl-benzyl}-amino)-methyl]-cyclohexanecarboxylic acid]",6.32
4,"COc1cc(CN(C[C@H]2CC[C@H](C(=O)O)CC2)[C@@H](C)c2ccc(Cl)cc2)ccc1C#CCN1C(=O)CCC1=O [Example 55, trans-4-[([(S)-1-(4-Chloro-phenyl)-ethyl]-{4-[3-(2,5-dioxo-pyrrolidin-1-yl)-prop-1-ynyl]-3-methoxy-benzyl}-amino)-methyl]-cyclohexanecarboxylic acid]",5.18
5,"COc1cc(CN(C[C@H]2CC[C@H](C(=O)O)CC2)[C@@H](C)c2ccc(Cl)cc2)ccc1CCCN1C(=O)CCC1=O [Example 56, trans-4-[([(S)-1-(4-Chloro-phenyl)-ethyl]-{4-[3-(2,5-dioxo-pyrrolidin-1-yl)-propyl]-3-methoxy-benzyl}-amino)-methyl]-cyclohexanecarboxylic acid]",6.67
6,"Cc1cc(CN(C[C@H]2CC[C@H](C(=O)O)CC2)C2CCc3cc(Cl)ccc32)ccc1OCCN1C(=O)CN(C)C1=O (stereo partly drawn) [Example 57, trans-4-[((5-Chloro-indan-1-yl)-{3-methyl-4-[2-(3-methyl-2,5-dioxo-imidazolidin-1-yl)-ethoxy]-benzyl}-amino)-methyl]-cyclohexanecarboxylic acid]",6.70
7,"Cc1cc(CN(C[C@H]2CC[C@H](C(=O)O)CC2)[C@@H](C)c2ccc(Cl)cc2)ccc1OCCn1c(=O)ccn(C)c1=O [Example 58, trans-4-[([(S)-1-(4-Chloro-phenyl)-ethyl]-{3-methyl-4-[2-(3-methyl-2,6-dioxo-3,6-dihydro-2H-pyrimidin-1-yl)-ethoxy]-benzyl}-amino)-methyl]-cyclohexanecarboxylic acid]",6.77
8,"COc1cc(CN(C[C@H]2CC[C@H](C(=O)O)CC2)C(C)c2ccc3c(c2)CCO3)ccc1OCCn1c(=O)ccn(C)c1=O (stereo partly drawn) [Example 59, trans-4-[([1-(2,3-Dihydro-benzofuran-5-yl)-ethyl]-{3-methoxy-4-[2-(3-methyl-2,6-dioxo-3,6-dihydro-2H-pyrimidin-1-yl)-ethoxy]-benzyl}-amino)-methyl]-cyclohexanecarboxylic acid]",6.71
9,"Cc1cc(CN(C[C@H]2CC[C@H](C(=O)O)CC2)C(C)c2ccc3c(c2)CCO3)ccc1OCCn1c(=O)ccn(C)c1=O (stereo partly drawn) [Example 60, trans-4-[([1-(2,3-Dihydro-benzofuran-5-yl)-ethyl]-{3-methyl-4-[2-(3-methyl-2,6-dioxo-3,6-dihydro-2H-pyrimidin-1-yl)-ethoxy]-benzyl}-amino)-methyl]-cyclohexanecarboxylic acid]",6.46
10,"Cc1cc(CN(C[C@H]2CC[C@H](C(=O)O)CC2)C(C)c2ccc(C#N)cc2)ccc1OCCN1C(=O)CCC1=O (stereo partly drawn) [Example 61, trans-4-[([1-(4-Cyano-phenyl)-ethyl]-{4-[2-(2,5-dioxo-pyrrolidin-1-yl)-ethoxy]-3-methyl-benzyl}-amino)-methyl]-cyclohexanecarboxylic acid]",6.99
11,"COc1cc(CN(C[C@H]2CC[C@H](C(=O)O)CC2)C(C)c2ccc(C#N)cc2)ccc1OCCn1c(=O)ccn(C)c1=O (stereo partly drawn) [Example 62, trans-4-[([1-(4-Cyano-phenyl)-ethyl]-{3-methoxy-4-[2-(3-methyl-2,6-dioxo-3,6-dihydro-2H-pyrimidin-1-yl)-ethoxy]-benzyl}-amino)-methyl]-cyclohexanecarboxylic acid]",6.70
12,"CCC(c1ccc(Cl)cc1)N(Cc1ccc(OCCN2C(=O)CCC2=O)c(OC)c1)C[C@H]1CC[C@H](C(=O)O)CC1 (stereo partly drawn) [Example 63, trans-4-[([1-(4-Chloro-phenyl)-propyl]-{4-[2-(2,5-dioxo-pyrrolidin-1-yl)-ethoxy]-3-methoxy-benzyl}-amino)-methyl]-cyclohexanecarboxylic acid]",7.21
13,"CCC(c1ccc(Cl)cc1)N(Cc1ccc(OCCn2c(=O)ccn(C)c2=O)c(C)c1)C[C@H]1CC[C@H](C(=O)O)CC1 (stereo partly drawn) [Example 64, trans-4-[([1-(4-Chloro-phenyl)-propyl]-{3-methyl-4-[2-(3-methyl-2,6-dioxo-3,6-dihydro-2H-pyrimidin-1-yl)-ethoxy]-benzyl}-amino)-methyl]-cyclohexanecarboxylic acid]",6.31
14,"CCC(c1ccc(Cl)cc1)N(Cc1ccc(OCCN2C(=O)CCC2=O)c(C)c1)C[C@H]1CC[C@H](C(=O)O)CC1 (stereo partly drawn) [Example 65, trans-4-[([1-(4-Chloro-phenyl)-propyl]-{4-[2-(2,5-dioxo-pyrrolidin-1-yl)-ethoxy]-3-methyl-benzyl}-amino)-methyl]-cyclohexanecarboxylic acid]",6.92

# Second part, the molecule after the results:
row,pIC50,SMILES
1,7.07,"CCC(c1ccc2c(c1)CCO2)N(Cc1ccc(CCCN2C(=O)CCC2=O)c(OC)c1)C[C@H]1CC[C@H](C(=O)O)CC1 (stereo partly drawn) [Example 66, trans-4-[([1-(2,3-Dihydro-benzofuran-5-yl)-propyl]-{4-[3-(2,5-dioxo-pyrrolidin-1-yl)-propyl]-3-methoxy-benzyl}-amino)-methyl]-cyclohexanecarboxylic acid]"
2,7.11,"CCC(c1ccc(Cl)cc1)N(Cc1ccc(OCCN2C(=O)CN(C)C2=O)c(OC)c1)C[C@H]1CC[C@H](C(=O)O)CC1 (stereo partly drawn) [Example 67, trans-4-[([1-(4-Chloro-phenyl)-propyl]-{3-methoxy-4-[2-(3-methyl-2,5-dioxo-imidazolidin-1-yl)-ethoxy]-benzyl}-amino)-methyl]-cyclohexanecarboxylic acid]"
3,6.84,"CCC(c1ccc(Cl)cc1)N(Cc1ccc(OCCn2c(=O)ccn(C)c2=O)c(OC)c1)C[C@H]1CC[C@H](C(=O)O)CC1 (stereo partly drawn) [Example 68, trans-4-[([1-(4-Chloro-phenyl)-propyl]-{3-methoxy-4-[2-(3-methyl-2,6-dioxo-3,6-dihydro-2H-pyrimidin-1-yl)-ethoxy]-benzyl}-amino)-methyl]-cyclohexanecarboxylic acid]"
4,7.25,"CCC(c1ccc2c(c1)CCO2)N(Cc1ccc(OCCN2C(=O)CCC2=O)c(C)c1)C[C@H]1CC[C@H](C(=O)O)CC1 (stereo partly drawn) [Example 69, trans-4-[([1-(2,3-Dihydro-benzofuran-5-yl)-propyl]-{4-[2-(2,5-dioxo-pyrrolidin-1-yl)-ethoxy]-3-methyl-benzyl}-amino)-methyl]-cyclohexanecarboxylic acid]"
5,6.74,"CCC(c1ccc(Cl)cc1)N(Cc1ccc(OCCN2C(=O)CN(C)C2=O)c(C)c1)C[C@H]1CC[C@H](C(=O)O)CC1 (stereo partly drawn) [Example 70, trans-4-[([1-(4-Chloro-phenyl)-propyl]-{3-methyl-4-[2-(3-methyl-2,5-dioxo-imidazolidin-1-yl)-ethoxy]-benzyl}-amino)-methyl]-cyclohexanecarboxylic acid]"
6,6.75,"CCc1cc(CN(C[C@H]2CC[C@H](C(=O)O)CC2)[C@H]2CCc3cc(Cl)ccc32)ccc1OCCN1C(=O)CCC1=O [Example 71, trans-4-[(((S)-5-Chloro-indan-1-yl)-{4-[2-(2,5-dioxo-pyrrolidin-1-yl)-ethoxy]-3-ethyl-benzyl}-amino)-methyl]-cyclohexanecarboxylic acid]"
7,6.08,"O=C1CCC(=O)N1CCOc1ccc(CN(C[C@H]2CC[C@H](C(=O)O)CC2)[C@H]2CCc3cc(Cl)ccc32)cc1F [Example 72, trans-4-[(((S)-5-Chloro-indan-1-yl)-{4-[2-(2,5-dioxo-pyrrolidin-1-yl)-ethoxy]-3-fluoro-benzyl}-amino)-methyl]-cyclohexanecarboxylic acid]"
8,6.81,"C[C@@H](c1ccc(Cl)cc1)N(Cc1ccc(OCCN2C(=O)CCC2=O)c(F)c1)C[C@H]1CC[C@H](C(=O)O)CC1 [Example 73, trans-4-[([(S)-1-(4-Chloro-phenyl)-ethyl]-{4-[2-(2,5-dioxo-pyrrolidin-1-yl)-ethoxy]-3-fluoro-benzyl}-amino)-methyl]-cyclohexanecarboxylic acid]"
9,6.46,"COc1cc(CN(C[C@H]2CC[C@H](C(=O)O)CC2)[C@H]2CCc3cc(Cl)c(Cl)cc32)ccc1OCCN1C(=O)CCC1=O [Example 74, trans-4-[(((S)-5,6-Dichloro-indan-1-yl)-{4-[2-(2,5-dioxo-pyrrolidin-1-yl)-ethoxy]-3-methoxy-benzyl}-amino)-methyl]-cyclohexanecarboxylic acid]"
